Measured values reported in patent US20210008028A1, “COMPOSITIONS AND METHODS FOR TREATING DIARRHEAL DISEASES” (VANESSA RESEARCH, INC., priority 2018, published 2021).

System: CTx-induced fluid secretion in the mouse intestine
Assay: Cholera-toxin induced closed-loop mouse diarrheal model, individual polyphenols and their combination
Type: in vivo
Details: for Concentration that did not have any effect on the CTx-induced fluid secretion: individual compound, CTx 1 μg per loop; for Effect on fluid accumulation elicited by CTx: individual polyphenols, dose-dependent
Description: Following identification, individual reagents of cyanidin, delphinidin, epicatechin gallate and epigallocatechin gallate were acquired from ChromaDex (Chromadex, Irvine, Calif., USA) and tested in the same cholera-toxin induced closed-loop mouse diarrheal model described above. We sought and resolved the IC^50 concentration of each individual component as relevant for the treatment of cholera-toxin induced intestinal secretion.
Mice (19-35 g) were fasted for 24-48 h, weighed and anesthetized with Avertin Sigma-Aldrich, St. Louise, Mo., USA) (250 mg/kg IP induction dose f.b. 2.6 mg IP every 30-45 minutes as needed for maintenance of anesthesia). Body temperature was maintained at 37-38° C. using a heating pad.
Abdomen was opened. Small, and part of the large intestine were identified. 2-4 cm loops were ligated in the proximal jejunum beginning immediately downstream of Treitz ligament. Loops were separated by 1-2 cm of intervening small intestine. After ligation, one loop was injected with 100 μl of PBS, second loop was injected with CTx solution (Cayman chemicals, 1 μg in 100 μl PBS and third loop was injected with CTx and polyphenol solution (Chromadex, Irvine, Calif., USA) in 100 μl of PBS. Injected loops were photographed and carefully placed back into the abdominal cavity and then abdomen was closed with two sutures. After 4 to 6-hour incubation, animal was euthanized and entire length of small intestine, cecum and ascending transverse colon were removed as a single prep. Loops were excised, trimmed of fat, measured and weighted. Mice were euthanized by cervical dislocation or an overdose injection of Avertin. All animal protocols were approved by the Laboratory Animal Ethical Committee of Vanessa Research Inc. The loop weight/length ratio was calculated.
Flavan-3-ols and gallotannins stock solutions (stock dilutions (stored at −20 C)) and working dilutions (PBS) were designated and prepared as follows:
F1A—Cyanidin chloride (Chromadex, ASB-00003955-005 Lot #00003955-041) 5 mg dissolved in 1 ml methanol (Sigma-Aldrich, Saint Louise, Mo., USA) to 5 mg/ml stock. Original concentration used in experiments 0.05 mg/ml. Serial dilutions from 1:10 to 1:100,000 with increments of 1:10 were prepared for experiments.
F1B—Delphinidin chloride (Chromadex, ASB-00004125-001 Lot #00004125-504) 1 mg dissolved in 143 ul methanol to 7 mg/ml stock. Original concentration used in experiments 0.07 mg/ml. Serial dilutions from 1:10 to 1:100,000 with increments of 1:10 were prepared for experiments.
F1C—Epicatechin gallate (Chromadex, ASB-00005135-005 Lot #00005135-523) 5 mg dissolved in 1 ml methanol to 5 mg/ml stock. Original concentration used in experiments […] (1:50 dilution of 5 mg/ml stock). Serial dilutions from 1:10 to 1:100,000 with increments of 1:10 were prepared for experiments.
F1D—Epigallocatechin gallate (Chromadex, ASB-00005150-005 Lot #00005150-008) 5 mg dissolved in 1 ml methanol to 5 mg/ml stock. Original concentration used in experiments […] (1:33.4 of 5 mg/ml stock). Serial dilutions from 1:10 to 1:100,000 with increments of 1:10 were prepared for experiments.
However, in order to confirm or exclude the idea of synergism between multiple polyphenols in exertion of the anti-secretory effect following induction of fluid secretion with CTx, we attempted a treatment with a combination of all 4 polyphenols in the concentrations as indicated in Table 1. The ratio of concentrations (mg/ml) of individual members (cyaniding:delphinidin:epicatechin gallate:epigallocatechin gallate) in the combination was derived from Table 1 as 500:70:1:150 (weight ratio) accordingly.
Data analysis was done as follows: The formula was used as adapted from Yamamoto K., 1979:
Mass accumulation=Tm−(Cm/CL)×TL
After determining fluid accumulation in treated and untreated samples, a percent reduction in mass was performed using the mass obtained from the previous formula
5. The certain variables were removed based on the Exclusion Criteria for Data: […]

Row | SMILES | Concentration that did not have any effect on the CTx-induced fluid secretion | Effect on fluid accumulation elicited by CTx
1 | O=C(O[C@@H]1Cc2c(O)cc(O)cc2O[C@@H]1c1ccc(O)c(O)c1)c1cc(O)c(O)c(O)c1 [F1C, Epicatechin gallate] | 1e-08 mg/mL | significantly reduced fluid accumulation
2 | Oc1cc(O)c2cc(O)c(-c3ccc(O)c(O)c3)[o+]c2c1.[Cl-] [F1A, Cyanidin chloride] | 5e-06 mg/mL | significantly reduced fluid accumulation
3 | O=C(O[C@@H]1Cc2c(O)cc(O)cc2O[C@@H]1c1cc(O)c(O)c(O)c1)c1cc(O)c(O)c(O)c1 [F1D, Epigallocatechin gallate] | 1e-06 mg/mL | significantly reduced fluid accumulation
4 | Oc1cc(O)c2cc(O)c(-c3cc(O)c(O)c(O)c3)[o+]c2c1 [F1B, Delphinidin chloride] | 7e-08 mg/mL | significantly reduced fluid accumulation
